Reference: the supplement of paper PMC13380429

Columns and labels:
Settings in all cases: 72 h
HepG2 [1] = test: cell viability relative to DMSO; higher = less toxic
Vero E6 [2] = test: as above
U2OS [3] = test: as above
Calu-3 [4] = test: as above
Caco-2 [5] = test: as above
HepG2 [6] = test: relative viability EC50 (midpoint between 100% and the lowest measured viability); higher = less toxic
Vero E6 [7] = test: as above
U2OS [8] = test: as above
Calu-3 [9] = test: as above
Caco-2 [10] = test: as above
HepG2 [11] = test: drug sensitivity score (DSS) for viability; higher = more toxic; extreme values may be limits of the assay
Vero E6 [12] = test: as above
U2OS [13] = test: as above
Calu-3 [14] = test: as above
Caco-2 [15] = test: as above

Compound	cell viability (HepG2 [1]; 1 nM) [%]	cell viability (HepG2 [1]; 10 nM) [%]	cell viability (HepG2 [1]; 100 nM) [%]	cell viability (HepG2 [1]; 1000 nM) [%]	cell viability (HepG2 [1]; 10000 nM) [%]	cell viability (Vero E6 [2]; 1 nM) [%]	cell viability (Vero E6 [2]; 10 nM) [%]	cell viability (Vero E6 [2]; 100 nM) [%]	cell viability (Vero E6 [2]; 1000 nM) [%]	cell viability (Vero E6 [2]; 10000 nM) [%]	cell viability (U2OS [3]; 1 nM) [%]	cell viability (U2OS [3]; 10 nM) [%]	cell viability (U2OS [3]; 100 nM) [%]	cell viability (U2OS [3]; 1000 nM) [%]	cell viability (U2OS [3]; 10000 nM) [%]	cell viability (Calu-3 [4]; 1 nM) [%]	cell viability (Calu-3 [4]; 10 nM) [%]	cell viability (Calu-3 [4]; 100 nM) [%]	cell viability (Calu-3 [4]; 1000 nM) [%]	cell viability (Calu-3 [4]; 10000 nM) [%]	cell viability (Caco-2 [5]; 1 nM) [%]	cell viability (Caco-2 [5]; 10 nM) [%]	cell viability (Caco-2 [5]; 100 nM) [%]	cell viability (Caco-2 [5]; 1000 nM) [%]	cell viability (Caco-2 [5]; 10000 nM) [%]	relative viability EC50 (HepG2 [6]) [µM]	relative viability EC50 (Vero E6 [7]) [µM]	relative viability EC50 (U2OS [8]) [µM]	relative viability EC50 (Calu-3 [9]) [µM]	relative viability EC50 (Caco-2 [10]) [µM]	drug sensitivity score (HepG2 [11])	drug sensitivity score (Vero E6 [12])	drug sensitivity score (U2OS [13])	drug sensitivity score (Calu-3 [14])	drug sensitivity score (Caco-2 [15])
CNC1CC(c2ccc(Cl)c(Cl)c2)c2ccccc21 (stereo not given) [indatraline]	97.6	96	96.4	99	92.7	99.4	95.4	96.4	99.4	91.7	100	102	94	102	90.1	102	96.3	93	107	89	99.7	103	95	103	86.8	> 10	> 10	> 10	> 10	> 10	0	0	0	0	0.1
Nc1nc(OCc2cc(Br)cs2)c2[nH]cnc2n1 [lomeguatrib]	87.7	99.9	84	98.8	100	105	104	95.4	102	99.9	101	94.6	106	100	99.7	106	103	95.8	102	93	96.9	90.9	110	96.1	100	> 10	> 10	> 10	> 10	> 10	0	0	0	0	0
Cc1c(F)cc(C(=O)NC2CC2)cc1-c1ccc(C(=O)NCC(C)(C)C)cn1 [losmapimod]	97.9	99.8	105	103	87.3	95.8	101	92.8	88.7	80.5	102	96.5	97.2	90.3	92.5	110	94.4	90.5	84	87.7	97	90.8	90.8	83.4	80.6	> 10	> 10	> 10	> 10	> 10	0	1.3	0	2.1	2.4
CN1CCN2c3c(cccc31)[C@@H]1CN(CCCC(=O)c3ccc(F)cc3)CC[C@@H]12 [lumateperone]	100	91.6	103	101	80.7	98.4	92.7	101	99.6	97.3	96.6	102	94.1	99.6	89.1	101	112	98.3	110	92.3	96.5	100	97.1	97.6	78.8	> 10	> 10	> 10	> 10	> 10	0.5	0	0	0	1
CN(C)CCOC(=O)COc1ccc(Cl)cc1 [meclofenoxate]	92.2	93.8	105	94.4	108	95.5	93.4	95.3	92.8	111	92.5	99.7	97.3	98.3	103	98	95.8	87.8	106	106	94.5	98.1	96.2	97.4	99.5	> 10	> 10	> 10	> 10	> 10	0	0	0	0	0
COc1ccc(Cl)cc1C(=O)NCCc1ccc(C(=O)O)cc1 [meglitinide]	109	106	110	88.7	94.2	98.4	105	100	104	103	101	98.2	98.6	93.4	99.6	108	103	98.1	96.8	114	90.9	102	94.8	91.5	98.1	> 10	> 10	> 10	> 10	> 10	0.3	0	0	0	0
CSCC[C@H](NC(=O)[C@H](Cc1ccccc1)NC(=O)CNC(=O)CNC(=O)[C@@H](N)Cc1ccc(O)cc1)C(=O)O [metenkephalin]	96.6	99	91	115	107	93.8	96.5	96.7	98.4	108	103	97.1	102	102	102	102	99.7	105	94.3	101	94.7	94.9	100	96.4	97.2	> 10	> 10	> 10	> 10	> 10	0	0	0	0	0
Cc1[nH]c(=O)c(C#N)cc1-c1ccncc1 [milrinone]	102	101	98.3	96.2	106	95.6	101	95.3	97.6	94.5	103	95.6	99.9	97.7	100	95.3	89.1	99.5	108	101	100	98.4	103	87.5	85.9	> 10	> 10	> 10	> 10	> 10	0	0	0	0	0.9
CCOC(=O)[N-]c1c[n+](N2CCOCC2)no1 [molsidomine]	87.6	95.4	97.8	106	107	92.1	99.7	95.5	96.4	109	99.3	97.6	104	99.8	102	95.8	88.6	91.6	91.8	89.4	94.4	96.5	106	95.1	104	> 10	> 10	> 10	> 10	> 10	0	0	0	0.1	0
CC1CCc2c(N3CCC(O)CC3)c(F)cc3c(=O)c(C(=O)O)cn1c23 (stereo not given) [nadifloxacin]	97	111	108	103	107	94.5	100	97.9	95.7	106	98.9	97.5	98.6	96.1	106	97.6	96.4	102	105	107	104	92.1	94.7	114	96.2	> 10	> 10	> 10	> 10	> 10	0	0	0	0	0
c1ccc2c(CC3=NCCN3)cccc2c1 [naphazoline]	96.1	102	102	98.4	118	102	99.4	95.5	97.7	93.3	97	101	94.9	97.8	93.9	93.6	93.6	109	107	89	95.6	102	90.1	101	93.2	> 10	> 10	> 10	> 10	> 10	0	0	0	0	0
C[C@@H]1O[C@@H](O[C@H]2[C@H](Oc3cc(O)c(C(=O)CCc4ccc(O)cc4)c(O)c3)O[C@H](CO)[C@@H](O)[C@@H]2O)[C@H](O)[C@H](O)[C@H]1O [naringin-dihydrochalcone]	110	93.2	105	90.9	101	104	104	104	102	99.9	93.1	96.2	94.2	102	95.6	95.6	90.9	92.7	101	105	94.2	92.2	99.5	102	96.3	> 10	> 10	> 10	> 10	> 10	0	0	0	0	0
COC(=O)c1ccc2c(c1)NC(=O)/C2=C(\Nc1ccc(N(C)C(=O)CN2CCN(C)CC2)cc1)c1ccccc1 [nintedanib]	98.9	101	103	91.2	80.3	110	102	106	100	98.5	101	101	97.1	104	94	106	98	102	101	90.4	93.1	108	102	94.7	107	> 10	> 10	> 10	> 10	> 10	1.5	0	0	0	0
COc1ccc2[nH]c(SCc3ncc(C)c(OC)c3C)nc2c1 [omeprazole-sulfide]	105	99.6	99	94.4	102	106	89.6	87.8	94.9	95.7	96.8	97.8	96.5	102	96.8	89.7	102	101	103	90.6	104	96.1	113	96	101	> 10	> 10	> 10	> 10	> 10	0	0	0	0	0
